Converted amounts (≈) assume the structure as drawn. “Also recorded” adds a separate entry of the source. Like-named read-outs stand apart in the source and are kept apart here.
Experiments:
Trypanosoma cruzi = test: T. cruzi phenotypic screening assay; type: cell-based; conditions: phenotypic screen, read-out: EC50 against T. cruzi
Experimental: (§1) T. cruzi4, Leishmania donovani axenic amastigote, cidal axenic amastigote and intra-
(§2) macrophage drug sensitivity assays were conducted as previously described5,6. […]
(§3) 5. Intrinsic clearance (CLint) […]
(§4) 6. Pharmacokinetic studies. […]

[1] = test system: L. donovani intramacrophage amastigotes; test: L. donovani intramacrophage assay (amastigotes in differentiated THP-1 cells); type: cell-based, Leishmania donovani; conditions: Leishmania donovani
Experimental: as §1, §2, §3, §4

THP-1 cells = test: Mammalian cell growth inhibition (THP-1); type: cell-based; conditions: Homo sapiens
Text: We hypothesized that, in view of their structural similarity, 1 and 2 probably shared the same mechanism of action.

[2] = Intrinsic clearance in mouse liver microsomes; type: in vitro ADME
Experimental: page 13: 4. Parasite assays T. cruzi4, Leishmania donovani axenic amastigote, cidal axenic amastigote and intra- macrophage drug sensitivity assays were conducted as previously described5,6. a. […] Instead of a single readout at 72 h, multiple identical plates were used and read at different time points (24, 48, 72 h). Rate of kill curves showing the luminescence signal at each time point for each concentration were plotted. 5. […] The rate of intrinsic clearance (CLint) of each test compound was then calculated using the following calculation: CLint(mL/min/g liver) = k x V x Microsomal protein yield Where V (mL/mg protein) is the incubation volume/mg protein added and microsomal protein yield is taken as 52.5 mg protein/g liver. Verapamil (0.5 μM) was used as a positive control to confirm acceptable assay performance. 6. Pharmacokinetic studies. a. Mouse and dog PK Mouse pharmacokinetic studies were conducted in male CD-1 mice and male beagle dogs. 3 animals per group were used for each study performed. A dose of 3 mg/kg was administered intravenously, in a bolus form to mice and infused over a 30 min period to dogs. For all the intravenous studies compound were dissolved in 5% DMSO/20% kleptose in saline. A dose of 10 mg/kg was orally administered by gavage to the two species in a suspension of 1% methylcellulose to investigate oral pharmacokinetics. S13

[3] = CAD (charged aerosol detector) solubility
[4] = test system: Salmonella typhimurium TA1535, TA1537, TA98, TA100 and Escherichia coli WP2uvrA(pKM101); test: Bacterial mutation screening assay (Ames test), overall outcome; type: cell-based; conditions: presence and absence of S9-mix
Experimental: i. Bacterial Mutation (Ames) Assay
Compound 6 was tested in a bacterial mutation screening assay (Ames test) with Salmonella typhimurium TA1535, TA1537, TA98, TA100 and Escherichia coli WP2uvrA(pKM101) in the presence and absence of an exogenous mammalian oxidative metabolism system (S9-mix). The maximum concentration tested and […]
Compound 6a was tested in a bacterial mutation screening assay (Ames test) with […]
Compound 7a was tested in a bacterial mutation screening assay (Ames test) with […]
The bacterial mutation screening assay was a plate incorporation test carried out as previously described15 and according to current methodology. […]

[5] = Solubility in fasted simulated intestinal fluid (FaSSIF); conditions: fassif
[6] = test system: L. donovani promastigotes; test: microbe, parasite or virus in culture; type: cell-based, Leishmania donovani; conditions: Leishmania donovani
Experimental: 9. Mode of action studies a. Cell lines and culture conditions […]
c. Generation of drug-resistant parasites […]
donovani in the continuous presence of this compound. Starting at a sub-lethal […]
After a total of 120 days in
Genomic DNA was harvested from three independently generated L. donovani resistant clones and an age match control, as previously described27. PCR was performed using Platinum PCR Supermix (Invitrogen), as per manufacturer’s […]
generated using primers SubunitB4FW and SubunitB4RV, then sequenced using primer SubunitB4FW (Table S6). To sequence the β5 subunit (LdBPK_361730.1), an […]
sequenced using primer SubunitB5FW. PCR amplification and DNA sequencing were performed in triplicate for each independently generated cell line. The Leishmania donovani BPK282A1 sequences of the two subunits were identified in TriTrypDB and […]
e. Generation of overexpression constructs and LdBOB transgenic cell lines The genes encoding the mutated versions of the β4 (LdBPK_360340.1) and the β5 […]
parasites, were synthesised (GeneArt, Thermo Fischer Scientific). The synthetic genes, flanked by BamHI sites were cloned into the equivalent site of pIR1-SAT. The accuracy of all assembled constructs was verified by sequencing.
Mid-log-phase L. donovani promastigotes (LdBOB) were transfected with overexpression constructs using the Human T-Cell Nucleofector kit and the Amaxa Nucleofector electroporator (program V-033). Following transfection, cells were […]
to appropriate drug selection (100 µg/mL nourseothricin). Cloned cell lines were […]
selection for one passage prior to experiments. […]

[7] = test system: chymotrypsin-like activity of the L. donovani proteasome; test: biochemical; design: species or system Leishmania donovani; conditions: lysates from RES II and WT parasites
Experimental: An in vitro assay was developed that enabled the chymotrypsin-like activity and additional proteolytic activities associated with the proteasome to be directly monitored within proteasome-enriched parasite cell lysates. Likewise, human proteasome from two sources (i.e., commercially pure 26S and enriched proteasome fractions from THP-1 lysates) was tested using the same biochemical assays.
Proteasome enrichment by ultracentrifugation
The protocol described by Kisselev et al.34 was adapted to enrich the proteasomes present in L. donovani and THP1 crude extracts. L. donovani or THP1 cells were resuspended in sucrose buffer (50 mM Tris buffer pH 7.5, 5 mM Magnesium chloride, 1 mM EDTA, 50 mM NaCl, 250 mM sucrose, 2 mM ATP, 1 mM DTT) and lysed by nitrogen cavitation for 15 min (110 bars of 1500 psi). Lysates were centrifuged at 20,000g for 30 min at 4 °C and supernatants containing soluble protein were subjected to an ultracentrifugation step at 300,000g for 2h at 4 °C. The resulting proteasome-containing pellets were resuspended in sucrose buffer and left on ice for 30 min to complete solubilization. Samples were centrifuged for 10 min at 20,000 g to remove insoluble material. Proteins contained in supernatant (proteasome enriched fraction) were measured by Bradford.
Proteasome activity assays
Compounds were dispensed into black 384-well assay plates (Greiner) by acoustic dispensing (LabCyte ECHO). For potency determinations, eleven-point, one in three dilution curves were generated, with a top concentration of 100 µM. Three proteasome activities were measured using a commercially available indirect enzyme-based luminescent assay kit (Promega) with Suc-LLVY-aminoluciferin, Z-LRR-aminoluciferin and Z-nLPnLD-aminoluciferin used as substrates for chymotrypsin-like, trypsin-like and caspase-like activities, respectively. In addition to proteasome samples: L. donovani and THP1-enriched proteasomes, commercially available human purified 26S proteasome (Boston Biochem) was also assessed.

[8] = test system: L. donovani proteasome β subunits; test: Activity-based probe (UbiQ-018) labelling of L. donovani proteasome; type: binding, Leishmania donovani; conditions: 100 µM
Experimental: m. Activity-Based Probe Labelling of THP1 and L. donovani proteasome
Proteasome enriched fractions from THP1 (20 µg), L. donovani (10 µg) and L. donovani […]
µM for 1 h. Proteasome enriched fractions were also incubated with DMSO as control.
For all proteasome labelling experiments, the active-site probe Me4BodipyFL-Ahx3Leu3VS (UbiQ-018) was used at final concentration of 500 nM in sucrose buffer (50 mM Tris buffer pH 7.5, 5 mM magnesium chloride, 1 mM EDTA, 50 mM NaCl, 250 mM sucrose, 2 mM ATP, 1 mM DTT). Proteasome enriched fractions treated with […]
DMSO or test compounds, were incubated with the probe for 2h at RT. Samples were then denatured by addition of Laemmli sample buffer, heated to 95°C for 10 min and separated by electrophoresis on a 15% SDS-PAGE acrylamide gel. Following separation, gels were scanned in the fluorescein channel of a ChemiDoc reader (λ excitation/emission = 480/530 nm). Fluorescent proteins were excised and MALDI– TOF analysis carried out by the FingerPrints Proteomics service at the University of […]
10. Measuring Proteolytic activity of Leishmania tarentolae Proteasome […]
pre-prepared as a 10 mM stocks in 100 % DMSO and then diluted 1 in 3, over 11 points, prior to dispense of 100 nl of each dilution series into black, low volume, 384-well microplates. Proteasome was prepared as a 0.5 µg/mL working solution in assay buffer (50 mM HEPES (pH 7.5), 150 mM NaCl, 5 mM MgCl2, 5% glycerol, 1 mM CHAPS) and 5 µL was added using a Multidrop Micro (Thermo Fisher Scientific) to all wells containing compound dilutions on the test microplates. The microplates were then centrifuged for 1 min at 1000 rpm and incubated for 15 mins at 25 °C, prior to an assay initiating addition of 5 µl of fluorogenic substrate, which had been prepared as a 1 µM […]
The assay microplates were then centrifuged for 10 secs before using a Tecan M1000 Pro to monitor the increase of fluorescent intensity at 25 °C by excitation of the liberated Rhodamine110 at 485 nm and emission at 535 nm every 125 secs for 20 cycles. […]
calculate initial rates of reactions for all assay wells on the microplate by fitting to a linear regression model. The initial rates of reaction for all compound concentrations tested were normalised to the initial rates determined for 16 replicate control wells per microplate of both uninhibited reaction and no-proteasome background, and subsequently, IC50 values were determined by fitting the normalised data to the following four-parameter logistic model; y = a + (( b – a) / ( 1 + ( 10 ^ x / 10 ^ c ) ^ d ), where ‘a’ is the minimum, ‘b’ is […], ‘c’ is the IC50 and ‘d’ is […].
11. Cryo-EM of 20S Leishmania tarentolae proteasome a. Purification of 20S Leishmania tarentolae proteasome. […]

[9] = test system: human proteasome catalytic subunits (THP-1 extracts); test: Activity-based probe (UbiQ-018) labelling of THP-1 proteasome; type: binding; conditions: human THP-1 extracts, 100 µM
L. donovani (LV9) [10] = test: Mouse model of VL (in vivo efficacy in female Balb/C mice); design: species or system Leishmania donovani; conditions: 30 mg/kg u.i.d. (10 days PO)
Experimental: Infected mice were dosed at 3, 10, or 25 mg/kg orally twice a day for 10 consecutive days. Two days after the termination of treatment, mice were euthanized, and the parasite burdens in their livers were determined.
Peripheral blood samples were obtained at 5, 15, 30 min, 1, 2, 4, 6 ,8 and 24 h after intravenous administration and 15, 30, 45 min,1, 2, 4, 6, 8 and 24 h after oral administration. Blood was 1/2 diluted with milliQ water and immediately frozen on dry ice until analysis. Quantification was performed by means of LC-MS/MS (API4000), with a lower limit of quantification of 1 ng/mL. […]
Data analysis and calculation of pharmacokinetic parameters was performed using Phoenix, WinNonLin Version 6.3. […]
For both intravenous and oral administration, the systemic exposures were determined by calculating the area under the blood concentration time curve (AUC) from the start of dosing to the last observed quantifiable concentration (AUC0-t) by using the linear up-log down trapezoidal rule. The slope of the terminal elimination phase was estimated by linear regression of the terminal data points (minimum 3 points) from a natural log concentration versus time plot of the data. The half-life (t1/2) of the terminal elimination phase was calculated as t1/2 = 0.693/λ.
7. In vivo efficacy in female Balb/C mice
To establish infection in mice, sodium stibogluconate-sensitive L. donovani (LV9, WHO designation: MHOM/ET/67/HU3) amastigotes were isolated from the spleen of a heavily infected donor hamster (Janvier, France)7. An inoculum containing 1.0 x 10^8 amastigotes/mL in Dulbecco’s modified eagles medium (high glucose) was prepared […]
and female BalbC mice (Harlan, UK) then infected intravenously via the tail vein with a 0.2 mL bolus (equivalent to ~2.0 x 10^7 amastigotes). Infection was left to establish for […]
daily orally as a suspension in 0.5% hydroxypropylmethylcellulose, 0.4% tween 80 and 0.5% benzyl alcohol. With twice daily regimens, the second daily dose was administered approximately 8 h following the first dose. Dose regimens evaluated were:
1. 50 mg/kg twice daily for 5 days
2. 25 mg/kg, 10 mg/kg and 3 mg/kg twice daily for 10 days
3. 25 mg/kg once daily for 10 days
Miltefosine, as the only oral treatment for visceral leishmaniasis, was used as a […]

L. donovani (LV9) [11] = test system: L. donovani (LV9); design: method as in PMID 11353640; conditions: similar mouse model, once daily; cited from earlier work
[12] = L. donovani amastigotes in differentiated THP-1 cells, read-out: Intramacrophage EC50

With O=C(Nc1cccc(-c2nc3ncccc3o2)c1)c1ccco1 [Compound 1] the EC50 (Trypanosoma cruzi) was 0.22 µM, the EC50 [1, 12] was 5.7 µM and the EC50 (THP-1 cells) was greater than 50 µM. The CLint [2] was 24 mL/min/g and the solubility [3] was 0.058 mg/mL (≈ 190 µM).

In the case of O=C(Nc1cccc(-c2cn3cccnc3n2)c1)c1ccco1 [Compound 2], the EC50 (Trypanosoma cruzi) is reported as 0.93 µM, the EC50 [1, 12] is reported as 26 µM and the EC50 (THP-1 cells) is reported as greater than 50 µM. The CLint [2] was 8.5 mL/min/g and the solubility [3] was no less than 0.162 mg/mL.

O=C(Nc1ccc(F)c(-c2cn3nc(N4CCOCC4)cnc3n2)c1)N1CCCC1 [Compound 7a] showed an EC50 ([1]; THP-1, read-out: Intramacrophage EC50) of 0.41 µM, an EC50 (THP-1 cells) greater than 50 µM and a CLint [2] of 0.91 mL/min/g. The AMES [4] was “not mutagenic; also recorded: negative”, the solubility (physchem) was 0.024 mg/mL (≈ 58.3 µM) and the solubility [5] was 0.013 mg/mL (≈ 31.6 µM).

Work on CC(C)C[C@H](NC(=O)[C@H](Cc1ccccc1)NC(=O)c1cnccn1)B(O)O [bortezomib, reference compound] yielded an EC50 ([6]; RES I (compound 7-resistant clone)) of 0.028 ± 0.0014 µM, an EC50 ([6]; RES III (compound 7-resistant clone)) of 0.032 ± 0.0015 µM and an EC50 ([6]; WT promastigotes) of 0.031 ± 0.0015 µM. For the same compound, the “inhibition of chymotrypsin-like activity, RES II vs WT lysates” value [7] was “equal potency”, the “UbiQ-018 labelling of proteasome subunits” value (from here on “UbiQ-018 labelling”) ([8]; L. donovani WT extracts) was “prevents labeling of proteasome subunits in all extracts” and the “UbiQ-018 labelling” value ([8]; L. donovani-resistant RES II extracts) was “prevents labeling of proteasome subunits in all extracts”. The “UbiQ-018 labelling” value [9] was “prevents labeling of proteasome subunits in all extracts”.

For CCCCCCCCCCCCCCCCOP(=O)([O-])OCC[N+](C)(C)C [miltefosine, reference compound], the “Reduction in parasite burden (compared to the vehicle control group)” value (L. donovani (LV9) [10]) is given as 99.9% and the ED90 (L. donovani (LV9) [11]) is given as 27 mg/kg.

From PMC6511062, “Preclinical candidate for the treatment of visceral leishmaniasis that acts through proteasome inhibition” (Proceedings of the National Academy of Sciences of the …, 2019)
